Data reported in patent US8546435B2, “Triazole derivatives with improved receptor activity and bioavailability properties as ghrelin antagonists of growth hormone secretagogue receptors” (AEterna Zentaris GmbH, priority 2010, dated 2013).
Where two headings read alike, the source gives them in different places.

Assays:
[1] = biological target: T1, Human Ghrelin Receptor (GHS-R 1A) (Homo sapiens (Human), UniProt Q92847); test: CRE/Luc reporter gene assay, antagonist; type: cell-based; conditions: 6 h, 1 μM rolipram
T1 sequence (Q92847 whole entry): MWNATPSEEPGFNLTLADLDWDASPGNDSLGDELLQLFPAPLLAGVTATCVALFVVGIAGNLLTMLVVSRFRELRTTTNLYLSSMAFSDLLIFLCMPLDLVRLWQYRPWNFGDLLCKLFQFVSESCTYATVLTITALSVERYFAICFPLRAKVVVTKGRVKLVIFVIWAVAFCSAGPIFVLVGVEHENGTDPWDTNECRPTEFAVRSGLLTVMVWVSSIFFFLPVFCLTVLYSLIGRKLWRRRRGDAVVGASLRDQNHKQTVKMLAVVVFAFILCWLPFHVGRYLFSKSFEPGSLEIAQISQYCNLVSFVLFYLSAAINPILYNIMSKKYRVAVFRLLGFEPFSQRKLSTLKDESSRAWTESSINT
Text: (§1) Mouse LTK-cells (ATCC CCL-1.3) were stably transfected with a plasmid containing the CMV minimal promoter (CMVmin) linked to three cAMP response elements (CRE) followed by a luciferase reporter gene. Based on this parental cell line, single cell clones stably overexpressing the human, rat or mouse GHS-R 1A have been established and characterized with respect to suitability for the different assay formats.
For the CRE/Luc reporter gene assay, the mouse LTK-cells stably expressing the human GHS-1RA and a luciferase reporter gene under the control of CRE elements and the CMV minimal promoter were incubated for 6 h with 1 μM rolipram in the presence of different concentrations of AEZS-130. Subsequently, cells were lysed and ATP bioluminescence was measured in the luminescence mode on FlexStation3 (Molecular Devices).
(§2) IC50 values were determined by using the GraphPad Prism analysis program (GraphPad Software).
(§3) Values given are either single measurements or mean values of up to nine independent experiments performed in duplicate (binding) or quadruplicate (functional assays) measurements.

[2] = biological target: T1, Human Ghrelin Receptor (GHS-R 1A); test: Calcium release, antagonist; type: cell-based; conditions: 15 minutes preincubation, then ghrelin
Text: as §1
For determination of calcium release the respective cell line was loaded with Fluo-4 NW Calcium Assay Kit (Moleculare Probes/Invitrogen # F10741) for 80 min @ 37° C. After 15 minutes of preincubation with different concentrations of the test compounds ghrelin was added and the signal was monitored for 60 seconds by a FlexStation3 microplate reader (Molecular Devices).
as §2, §3

CYP3A4 = CYP3A4 (Homo sapiens (Human), UniProt P08684); test: CYP3A4 inhibition in human liver microsomes, direct and metabolism-dependent; type: in vitro ADME; conditions: marker substrate testosteron
Chain of CYP3A4 (P08684 whole entry): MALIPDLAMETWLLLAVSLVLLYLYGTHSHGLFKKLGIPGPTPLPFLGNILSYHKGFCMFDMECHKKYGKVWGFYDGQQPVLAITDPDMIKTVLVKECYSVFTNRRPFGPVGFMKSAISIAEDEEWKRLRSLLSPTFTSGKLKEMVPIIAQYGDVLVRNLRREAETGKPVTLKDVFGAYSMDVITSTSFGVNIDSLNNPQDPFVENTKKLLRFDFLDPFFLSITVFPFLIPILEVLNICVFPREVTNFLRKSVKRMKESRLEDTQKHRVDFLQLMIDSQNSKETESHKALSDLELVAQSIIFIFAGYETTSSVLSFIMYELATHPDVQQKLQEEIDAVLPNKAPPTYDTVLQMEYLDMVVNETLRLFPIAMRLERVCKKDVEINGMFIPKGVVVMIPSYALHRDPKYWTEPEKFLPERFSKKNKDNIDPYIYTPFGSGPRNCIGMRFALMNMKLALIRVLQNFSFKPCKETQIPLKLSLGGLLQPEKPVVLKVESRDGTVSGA
Method: Direct and metabolism-dependent inhibition of CYP enzymes are assessed with specific marker substrates by a HPLC-based UV detection method in human liver microsomes. Incubations are carried out as doublets with final concentrations ranging from 0.01 to 200 μM (30 min, 37° C.). Metabolism-dependent inhibition was assessed by incubation for 30 minutes in the presence of NADPH prior to the addition of marker substrate to allow the generation of metabolites. Percent inhibition is plotted against concentration to calculate or extrapolate IC50 values from the sigmoid curve.

[3] = Stability in liver microsomes; type: in vitro ADME, rat; conditions: @37° C./1 mg/ml Liver Microsomes, 10 μM
Method: Metabolic stability in liver microsomes of different species (in the presence of NADPH, 1 mg/ml microsomal protein) was evaluated at 37° C. over time in triplicates at a test concentration of 10 μM. Loss of parent compound is measured by an HPLC-based UV detection method. For prediction of rat hepatic clearance half-lives (t1/2) were fitted from first-order rate constant k (min^−1) obtained from the slope of time versus In % remaining.

hERG channel = hERG channel (Homo sapiens (Human), UniProt Q12809); test: Predictor hERG Fluorescence Polarization Assay; type: binding
Chain of hERG channel (Q12809 whole entry): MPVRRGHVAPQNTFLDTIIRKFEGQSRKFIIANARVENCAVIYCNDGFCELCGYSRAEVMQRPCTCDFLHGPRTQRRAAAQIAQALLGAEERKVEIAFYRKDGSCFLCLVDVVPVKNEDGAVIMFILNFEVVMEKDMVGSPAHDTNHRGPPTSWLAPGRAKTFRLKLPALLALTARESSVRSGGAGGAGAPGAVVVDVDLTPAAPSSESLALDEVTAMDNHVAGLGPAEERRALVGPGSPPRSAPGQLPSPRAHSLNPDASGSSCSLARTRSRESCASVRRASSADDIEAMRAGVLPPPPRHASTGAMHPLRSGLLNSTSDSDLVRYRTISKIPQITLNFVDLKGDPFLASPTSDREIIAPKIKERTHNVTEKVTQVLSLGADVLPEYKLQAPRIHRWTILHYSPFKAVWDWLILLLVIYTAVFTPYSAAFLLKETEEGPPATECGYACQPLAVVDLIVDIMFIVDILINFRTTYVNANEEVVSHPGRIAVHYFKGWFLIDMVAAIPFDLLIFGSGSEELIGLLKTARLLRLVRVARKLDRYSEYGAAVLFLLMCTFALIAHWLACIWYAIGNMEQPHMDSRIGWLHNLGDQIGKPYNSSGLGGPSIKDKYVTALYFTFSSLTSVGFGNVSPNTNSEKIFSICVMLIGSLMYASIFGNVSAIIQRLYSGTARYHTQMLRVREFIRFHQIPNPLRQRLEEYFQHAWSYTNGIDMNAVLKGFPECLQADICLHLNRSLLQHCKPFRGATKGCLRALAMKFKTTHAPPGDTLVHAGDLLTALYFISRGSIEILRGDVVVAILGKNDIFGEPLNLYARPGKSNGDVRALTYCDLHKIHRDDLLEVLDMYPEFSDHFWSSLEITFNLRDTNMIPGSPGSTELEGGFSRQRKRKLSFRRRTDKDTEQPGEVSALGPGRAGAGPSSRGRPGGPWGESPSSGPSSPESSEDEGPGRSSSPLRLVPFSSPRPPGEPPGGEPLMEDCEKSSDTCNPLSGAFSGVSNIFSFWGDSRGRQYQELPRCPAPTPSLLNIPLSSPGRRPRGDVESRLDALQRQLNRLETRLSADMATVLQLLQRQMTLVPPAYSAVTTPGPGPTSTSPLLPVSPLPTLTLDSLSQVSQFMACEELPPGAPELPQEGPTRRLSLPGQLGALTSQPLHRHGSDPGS
Text: The Predictor™ hERG Fluorescence Polarization Assay (Invitrogen, Karlsruhe, GER) determines whether test compounds block the hERG channel [Piper, D. R. et al., Assay Drug Dev Technol. 2008, 6(2):213-23]. The assay uses a membrane fraction containing hERG channel protein (Predictor™ hERG Membrane) and a high-affinity red fluorescent hERG channel ligand, or “tracer” (Predictor™ hERG Tracer Red), in a homogenous, fluorescence polarization (FP)-based format. Compounds that bind to the hERG channel protein (competitors) are identified by their ability to displace the tracer, resulting in a lower fluorescence polarization. The assay was performed according to guidelines of the manufacturer

[4] = biological target: MDR-1 (P-glycoprotein, Pgp) (Homo sapiens (Human), UniProt P08183); test: Inhibition of MDR1 ATPase (Pgp-Glo assay, SF9 membrane preparations); type: biochemical
Chain of MDR-1 (P-glycoprotein, Pgp) (P08183 whole entry): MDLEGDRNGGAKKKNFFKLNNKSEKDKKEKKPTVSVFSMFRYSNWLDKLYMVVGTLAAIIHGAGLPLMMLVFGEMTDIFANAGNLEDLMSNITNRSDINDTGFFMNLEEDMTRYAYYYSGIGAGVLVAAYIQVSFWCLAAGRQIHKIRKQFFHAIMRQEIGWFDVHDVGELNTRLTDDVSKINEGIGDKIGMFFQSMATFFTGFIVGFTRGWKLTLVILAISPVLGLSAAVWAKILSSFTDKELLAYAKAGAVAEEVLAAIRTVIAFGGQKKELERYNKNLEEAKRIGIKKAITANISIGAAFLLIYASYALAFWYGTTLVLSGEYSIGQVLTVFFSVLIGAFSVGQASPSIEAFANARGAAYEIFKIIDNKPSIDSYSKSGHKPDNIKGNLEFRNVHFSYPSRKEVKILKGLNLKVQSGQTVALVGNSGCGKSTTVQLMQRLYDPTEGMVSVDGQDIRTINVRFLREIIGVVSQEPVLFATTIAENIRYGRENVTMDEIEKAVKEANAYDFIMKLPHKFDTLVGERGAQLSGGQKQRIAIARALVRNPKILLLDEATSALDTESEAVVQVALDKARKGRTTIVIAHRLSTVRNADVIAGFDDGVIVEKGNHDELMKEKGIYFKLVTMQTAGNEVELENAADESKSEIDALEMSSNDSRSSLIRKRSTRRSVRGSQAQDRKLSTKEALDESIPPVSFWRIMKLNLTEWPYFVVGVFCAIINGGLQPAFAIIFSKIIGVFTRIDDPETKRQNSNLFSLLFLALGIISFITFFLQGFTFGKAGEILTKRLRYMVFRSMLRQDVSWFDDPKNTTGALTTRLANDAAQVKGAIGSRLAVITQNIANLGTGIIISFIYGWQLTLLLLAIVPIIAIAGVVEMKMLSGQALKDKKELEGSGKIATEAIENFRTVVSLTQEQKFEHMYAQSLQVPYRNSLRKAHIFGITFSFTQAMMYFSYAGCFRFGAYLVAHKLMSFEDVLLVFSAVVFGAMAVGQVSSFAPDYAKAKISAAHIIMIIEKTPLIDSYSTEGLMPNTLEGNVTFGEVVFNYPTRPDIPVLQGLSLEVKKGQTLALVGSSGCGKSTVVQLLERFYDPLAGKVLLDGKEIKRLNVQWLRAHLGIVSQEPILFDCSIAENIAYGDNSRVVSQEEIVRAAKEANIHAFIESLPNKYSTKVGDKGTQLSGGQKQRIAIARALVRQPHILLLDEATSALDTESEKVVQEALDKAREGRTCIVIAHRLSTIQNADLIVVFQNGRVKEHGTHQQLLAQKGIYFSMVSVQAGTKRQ
Method: For detection of MDR-1 (P-glycoprotein, Pgp) ATPase activity commercially available membrane preparations of MDR-1 overexpressing SF9 insect cells (SB-MDR1-Sf9-ATPase Membrane; 2.5 mg/500 μL; Solvo/tebu-bio #168SB-MDR1-Sf9-ATPase) were used. Since transport by MDR-1 is ATP-dependent, ATP consumption indicates transport activity of MDR-1. ATP consumption is detected as a decrease in luminescence from a second reaction with a recombinant firefly luciferase by using the Pgp-Glo™ Assay Kit (Promega # V3591).

[5] = biological target: T1, Human Ghrelin Receptor (GHS-R 1A); test: Competitive binding, iodinated ghrelin tracer, intact LTK-cells overexpressing GHS-R 1A; conditions: 60 min at 37° C.
Text: as §1
For receptor competitive binding studies, iodinated ghrelin was used as a tracer at conditions of about 80% saturation binding. Different concentrations of the test compounds were analyzed for displacement of the tracer. For this purpose, the suspension of intact cells plus tracer mix and different test compound concentrations was layered on top of silicon/paraffin oil, incubated for 60 min at 37° C. and subjected to centrifugation. After freezing in liquid nitrogen the cell pellets were separated from the supernatant by cutting the tubes in the intermediate silicon/paraffin oil section and analyzed by γ-radiation analysis. The amount of unspecific binding was determined by including unlabeled ghrelin at 1 μM final concentration.
as §2, §3

[6] = 30 minutes preincubation with NADPH, read-out: CYP3A4 Inhibition Testosteron Preincubation EC50
[7] = direct inhibition, human liver microsomes, read-out: CYP3A4 Inhibition Testosteron EC50

| SMILES | IC50 [1] [µM] | IC50 [2] [µM] | EC50 (CYP3A4; [6]) [µM] | EC50 (CYP3A4; [7]) [µM] | Stability in Liver Microsomes Rat % Remaining after 1 h Incubation [3] [%] | hERG Predictor EC50 (hERG channel) | Inhibition of MDR1 ATPase EC50 [4] | IC50 [5] [µM] | EC50 [4] [µM] |
| --- | --- | --- | --- | --- | --- | --- | --- | --- | --- |
| CCOC(=O)Cc1nnc([C@@H](Cc2c[nH]c3ccccc23)NC(=O)c2cccnc2)n1Cc1ccc(OC)cc1 [Cpd 1, [5-{(R)-2-(1H-Indol-3-yl)-1-[(pyridine-3-carbonyl)-amino]-ethyl}-4-(4-methoxy-benzyl)-4H-[1,2,4]triazol-3-yl]-acetic acid ethyl ester] | 0.0128 | 0.003 |  |  |  |  |  |  |  |
| COc1ccc(Cn2c([C@@H](Cc3ccccc3)NC(C)=O)nnc2[C@@H](Cc2c[nH]c3ccccc23)NC(=O)CO)cc1.O=C(O)C(F)(F)F [Cpd 6, N-[(R)-1-[5-((R)-1-Acetylamino-2-phenyl-ethyl)-4-(4-methoxy-benzyl)-4H-[1,2,4]triazol-3-yl]-2-(1H-indol-3-yl)-ethyl]-2-hydroxy-acetamide] | 0.0078 | 0.0021 | 1.4 | 34.3 | 27.1 | no inhibition | no inhibition | 0.003 |  |
| COc1ccc(Cn2c([C@@H](Cc3ccccc3)NC(C)=O)nnc2[C@@H](Cc2c[nH]c3ccccc23)NC(=O)[C@@H]2CNCCO2)cc1.O=C(O)C(F)(F)F [Cpd 7, (S)-Morpholine-2-carboxylic acid [(R)-1-[5-((R)-1-acetylamino-2-phenyl-ethyl)-4-(4-methoxy-benzyl)-4H-[1,2,4]triazol-3-yl]-2-(1H-indol-3-yl)-ethyl]-amide] | 0.0095 | 0.0038 | 1.1 | 27 | 82.7 | no inhibition |  | 0.0034 | 1.08 |
| COc1ccc(Cn2c([C@@H](Cc3c[nH]c4ccccc34)NC=O)nnc2[C@@H](Cc2c[nH]c3ccccc23)NC(=O)C(C)(C)N)cc1.O=C(O)C(F)(F)F [Cpd 9, 2-Amino-N-[(R)-1-[5-[(R)-1-formylamino-2-(1H-indol-3-yl)-ethyl]-4-(4-methoxy-benzyl)-4H-[1,2,4]triazol-3-yl]-2-(1H-indol-3-yl)-ethyl]-2-methyl-propionamide] | 0.0586 | 0.0326 | 1.5 | 10 to 30 | 54.8 | no full dose |  | 0.0032 | 0.836 |
| COc1ccc(Cn2c(CCc3c[nH]c4ccccc34)nnc2[C@@H](Cc2ccc3ccccc3c2)NC(=O)OC(C)(C)C)cc1.O=C(O)C(F)(F)F [Cpd 15, {(R)-1-[5-[2-(1H-Indol-3-yl)-ethyl]-4-(4-methoxy-benzyl)-4H-[1,2,4]triazol-3-yl]-2-naphthalen-2-yl-ethyl}-carbamic acid tert-butyl ester] | 0.0249 | 0.0399 |  |  | 37.8 |  |  | 0.0165 | 16.3 |
